Source: patent publication US5498522A, “Methods for the use of spermidine/spermine N^1 -acetyltransferase as a prognostic indicator and/or a tumor response marker” (priority 1993, dated 1996)
“Also recorded” adds a separate entry of the source.

Legend:
[1] = system: spermidine/spermine N^1 -acetyltransferase (SSAT); test: SSAT induction in cultured human tumor cell lines in-vitro; type: cell-based; settings: for SSAT induction (FIG. 5, words) / SSAT: 48 hours
Procedure: To illustrate this embodiment, three polyamine analogs comprising bis-ethyl spermine analogs were used to treat MALME-3 human melanoma cells cultured in-vitro, and MALME-3 cells implanted as human xenografts in the athymic nude mouse model (Bernacki et al., 1992, supra). For in-vitro treatment, MALME-3 cells were maintained as a monolayer culture growing in RPMI 1640 containing 2% N-2-hydroxy-piperazine-N^1 -ethanesulfonic acid/3-N-morpholinopropanesulfonic acid pH 7.4 as a buffer, 1 mM aminoguanidine as an inhibitor of serum oxidase, and 10% of a semidefined serum substitute. Cells were seeded at 2×10^5 cells/T-75 flask and incubated 24 hours before treatment with analogues. Following treatment with 10 μM of the respective bis-ethyl spermine analog, control and treated cultured cells were trypsinized, washed, and suspended for enzyme assays and cell number determinations.
In accordance with the above methods for assaying the induction of SSAT levels in tumor cell lines treated in-vitro and xenografts treated in-vivo, the induction pattern also correlates fairly well amongst different clonal lines of a particular tumor type. This can be illustrated with melanoma clonal lines LOX, SH-1, PANUT-3, and MALME-3.
In accordance with the above methods for assaying the induction of SSAT levels in tumor cell lines treated in-vitro and xenografts treated in-vivo, the induction pattern also correlates fairly well amongst carcinomas of solid organs. This can be illustrated with malignant clonal lines A121, A549, and HT29.
As mentioned previously, cells from malignant solid tumor respond to polyamine analog therapy heterotypically. SSAT induction and antitumor response may vary not only among the solid tumor tissue type, but also with the clonal line of tumor of a particular solid tissue type. However, a correlation between the level of induction of SSAT and the potency of antitumor response has been observed in tumors of a particular solid tissue type. For example, seven human melanoma cell lines were assayed in-vitro for their response, as determined by cell growth and level of SSAT induction, to 10 μM BESPM at 48 hours post-treatment. As summarized in FIG. 5, growth among the cell lines decreases as SSAT induction increases.
To illustrate this embodiment, LOX and MALME-3 cell cultures were treated for 48 hours with 10 μm BESPM. The cells from each culture were harvested and assayed for SSAT activity. Media samples were prepared by treating the samples with 50% trichloroacetic acid to give a final concentration of 10% and then centrifuged at 15,000×g for 10 minutes. The supernatant was then filtered through a 0.22-μm filter, extracted with several volumes of ether, lyophilized, and resuspended in 10% trichloroacetic acid. N^1 -acetylspermidine levels of cells and media samples were then measured by use of high-pressure liquid chromatography. […] Similarly, N^1 -acetylspermidine levels from MALME-3 control cells, media from control cell cultures, and treated MALME-3 cells contained minimal levels of N^1 -acetylspermidine.

[2] = tolerated dose / host toxicity in xenograft-bearing mice; settings: mouse, in vivo, every 8 hours for 6 days, read-out: tolerated dose (higher doses were toxic)
Procedure: […] where 1 represents length; w--width; and h--height. Tumor sizes were monitored 2 times/week until the median volume (V=0.4(a^2 ×b) where a is the smaller of the two perpendicular tumor diameters). As an indication of drug toxicity, animal weights were also recorded at the time of tumor volume measurement. Statistical analyses were performed on mouse tumor size and weight parameters by using the Mann-Whitney test.
As illustrated in Table 1 with MALME-3 human melanoma cells, the rank order effectiveness of three polyamine analogs in inducing SSAT levels both in-vitro and in-vivo were BENSPM>BESPM>BEHSPM, with substantial differences in induction between them. The same three polyamine analogs were analyzed for their effectiveness in inducing a potent antitumor response in-vivo. Mice developing palpable tumors of a similar size were divided into different treatment groups comprising 5 mice per treatment group, and 10 control mice per treatment group. The treatment groups, and treatment regimen. per group, were as follows: BEHSPM: administered every 8 hours for a 6 day period with group 1 receiving 1.5 mg/kg; group 2 receiving 3.0 mg/kg; and group 3 receiving 6.0 mg/kg.
BESPM: administered every 8 hours for a 6 day period with group 1 receiving 10 mg/kg; group 2 receiving 20 mg/kg; and group 3 receiving 40 mg/kg.
BENSPM: administered every 8 hours for a 6 day period with group 1 receiving 20 mg/kg; group 2 receiving 40 mg/kg; and group 3 receiving 80 mg/kg.
Note that the highest drug dosages for each analog approach the maximally tolerated dosage for that particular analog (for example, BEHSPM at 6 mg/kg; BESPM at 20 mg/kg; and BENSPN at 80 mg/kg were tolerated by treated animals, whereas higher doses were toxic). Tumor cells comprising the human xenograft were removed from two animals of each group and assayed for SSAT induction. […]

[3] = system: ornithine decarboxylase (ODC); settings: in-vitro; cited from earlier work
[4] = system: S-adenosylmethionine decarboxylase (SAMDC); settings: in-vitro; cited from earlier work

Structure (SMILES) | SSAT induction (FIG. 5, words) ([1]; LOX and SH-1, 10 μM BESPM) | SSAT ([1]; LOX, 10 μM BESPM) [pmol/mg/min] | SSAT induction in-vitro ([1]; LOX, 10 μm BESPM) [pmol/min/10^6 cells] | SSAT ([1]; MALME-3, 10 μM BESPM) | SSAT induction in-vitro ([1]; MALME-3, 10 μm BESPM (Table 2)) | SSAT induction (FIG. 5, words) ([1]; MALME-3 and Ebey, 10 μM BESPM) | SSAT induction in-vitro relative to BEHSPM ([1]; MALME-3 cells, 10 μM) | SSAT induction in-vitro ([1]; PANUT-3, 10 μm BESPM) | SSAT induction in-vitro ([1]; SH-1, 10 μm BESPM) [pmol/min/10^6 cells] | MTD at 144 h [2] [mg/kg] | ODC suppression [3] | SAMDC suppression [4] | SSAT induction in-vitro ([1]; MALME-3 cells, 10 μM analog) [pmol/min/10^6 cells] | SSAT induction in-vitro ([1]; A121 ovarian, 10 μm BENSPM) | SSAT induction in-vitro ([1]; A549 lung, 10 μm BENSPM) | SSAT induction in-vitro ([1]; HT29 colon, 10 μm BENSPM) | SSAT induction in-vitro relative to BESPM ([1]; MALME-3 cells, 10 μM) [fold]
CCNCCCNCCCCNCCCNCC [BESPM, N^1,N^12-bis(ethyl)spermine] | lowest induction of SSAT levels | 120 | 171 | 12,405 pmol/mg/min | 19,520 pmol/min/10^6 cells | highest SSAT activity | about 10 fold | 10,343 pmol/min/10^6 cells | 1100 | 20 | rapidly suppress ODC and SAMDC; also recorded: similarly suppress ornithine and S-adenosyl-methionine decarboxylase levels | rapidly suppress ODC and SAMDC; also recorded: similarly suppress ornithine and S-adenosyl-methionine decarboxylase levels |  |  |  |  | 
CCNCCCCNCCCCNCCCCNCC [BEHSPM, N^1,N^14 -bis(ethyl)homospermine] |  |  |  |  |  |  |  |  |  | 6 | similarly suppress ornithine and S-adenosyl-methionine decarboxylase levels | similarly suppress ornithine and S-adenosyl-methionine decarboxylase levels | 1108 |  |  |  | 
CCNCCCNCCCNCCCNCC [BENSPM, N^1,N^11 -bis(ethyl)norspermine] |  |  |  |  |  |  |  |  |  | 80 | similarly suppress ornithine and S-adenosyl-methionine decarboxylase levels | similarly suppress ornithine and S-adenosyl-methionine decarboxylase levels |  | 2,700 pmol/min/10^6 cells | 22,755 pmol/min/10^6 cells | 3,640 pmol/min/10^6 cells | 5 to 6
